Columns and labels:
recent-onset RA patients [1] = test: Clinical response to methotrexate monotherapy (DAS) in genotyped patients of the BeSt trial; type: in vivo, human; conditions: for Good clinical response at six months, number of patients / Good clinical response at six months, percentage of patients: DAS≦2.4
Source text: The 247 patients enrolled in the study was a sub-cohort of 508 patients participating in the BeSt trial (25). Inclusion criteria for this trial were fulfilment of the American College of Rheumatology (ACR) 1987 criteria, age of 18 years or older, a disease duration of less than 2 years. All patients had to have an active disease defined as ≧6/66 swollen joints and ≧6/68 tender joints and either an ESR ≧28 mm/hr or a Visual Analogue Scale (VAS) for global health ≦20 mm (on a scale of 0-100, 0=worst, 100=best).
The BeSt trial is a randomized, multi-centre, single-blinded, clinical study comparing the clinical efficacy of four different treatment strategies in early rheumatoid arthritis; sequential monotherapy (n=126 starting with methotrexate), step-up to combination therapy with sulphasalazine (n=121 starting with methotrexate), initial combination therapy with methotrexate, sulphasalazine and a high tapered dose of prednisolone (n=133) or initial biologic therapy with infliximab and methotrexate (n=128). In the present study, only patients allocated to initial single use of methotrexate were selected (n=247).
The primary objective of treatment in the BeSt study was achieving good clinical response as defined by the DAS≦2.4 (26-28). The DAS is a validated composite outcome measure consisting of the Ritchie articular index (RAI), the number of swollen joints (SJC, out of 44), general well being as indicated by the patient on a visual analogue scale (VAS), and the Erythrocyte Sedimentation Rate (ESR). A research nurse who remained blinded for the allocated treatment group scored the DAS every three months.
All selected patients started with oral methotrexate 7.5 mg weekly, increased to 15 mg weekly after 4 weeks, combined with folic acid (1 mg per day). In case of insufficient clinical response at three months of follow-up (DAS>2.4), the dosage was increased stepwise to 25 mg weekly, either orally or parenterally as decided by the rheumatologist. If the clinical response remained insufficient with methotrexate 25 mg weekly, patients were treated according to the next step of the BeSt protocol; patients with methotrexate sequential monotherapy switched to sulphasalazine 1000 mg twice daily; patients with initial step-up combination therapy, sulphasalazine 1000 mg twice daily was added to methotrexate. Concomitant therapies with nonsteroidal anti-inflammatory drugs (NSAIDs), as well as intra-articular injections with corticosteroids, were allowed for all treatment groups. For current analysis, clinical data for the first six months of follow-up were used, representing methotrexate treatment only.
“Responders” were defined as patients with DAS ≦2.4 (good clinical response) based on EULAR response criteria (26-28) and ‘non-responders ’ as patients with DAS >2.4 at six months of follow up.
Differences in baseline characteristics were analysed by Student's t-test for continuous variables or Chi-square test for dichotomous variables. Differences in genotype distribution for response and toxicity were tested by 3 by 2 cross tabs for each genotype, and by 2 by 2 cross tabs for carriers versus non-carriers analysis with the two-sided Chi-square test. We used binary logistic analysis in case of differences in genotype distribution, to calculate odds ratios for achieving good response or experiencing adverse drug events. Age and gender were identified as possible confounders and were used as covariates in all regression analyses. The primary efficacy endpoint was good clinical response at six months (DAS≦2.4). DAS good clinical response status required patients to be present at a given time point; no values were carried forward. Secondary endpoints were good clinical improvement defined as change in DAS>1.2 (ΔDAS>1.2) and moderate clinical improvement defined as change in DAS>0.6 (ΔDAS>0.6). […]

recent-onset RA patients [2] = test: Adverse drug events during six months of methotrexate therapy, BeSt trial; type: in vivo, human
Experimental: Toxicity was evaluated by counting each reported adverse drug event and its consequences for the patient and treatment. Adverse drug events were spontaneously reported by the patients, or were reported as a result of non-specific questioning on patients' well-being by the investigator, by physical examination or laboratory measurements during follow up. In case of adverse drug events, methotrexate was continued at the lowest tolerated dose, or if methotrexate was not tolerated at all, the DMARD therapy was adjusted according to the protocol. Of all reported adverse drug events, the following non-infectious adverse drug events were evaluated explicitly: gastrointestinal adverse drug events defined as patients' general well-being, nausea, vomiting, diarrhea, and constipation; liver adverse drug events defined as all cases of elevated functional liver enzymes resulting in methotrexate dose adjustment or discontinuation; pneumonitis; skin and mucosal disorders. Moreover, patients were evaluated for leucopenia (<4.10^9/L), ALAT 3 times upper limit of normal (>135 U/L) and for alkaline phosphatase (AF) 3 times the upper limit of normal (>360 U/L).
For toxicity analysis, all patients who altered therapy from methotrexate before six months of follow-up were verified for adverse drug events after change of therapy and included in the analysis. The analyses of laboratory measurements were performed for completers only. The toxicity regression analysis was tested for the following confounders: weight, creatinine clearance, methotrexate dosage group (15 or 25 mg) and use of alcohol.

[3] = system: Rheumatoid arthritis (RA) patients; conditions: literature refs 7-9; cited from earlier work
[4] = ITPA CC genotype, 15 mg weekly, six months
[5] = all patients with toxicity data (n=200)

**Q.** With `CN(Cc1cnc2nc(N)nc(N)c2n1)c1ccc(C(=O)N[C@@H](CCC(=O)O)C(=O)O)cc1` [methotrexate] as the compound, how does the “Good clinical response, Methotrexate 15 mg weekly, percentage” value (recent-onset RA patients [1]; ITPA CA genotype, 15 mg weekly, six months) read?
**A.** Its value is “(60%)”.

**Q.** What about the “Good clinical response, Methotrexate 25 mg weekly, number of responders/patients” value (recent-onset RA patients [1]; ITPA CA genotype, six months) of the same compound?
**A.** Its value is 4/22.

**Q.** And the “Good clinical response, Methotrexate 25 mg weekly, percentage” value (recent-onset RA patients [1]; ITPA CA genotype, six months)?
**A.** Its value is “(18%)”.

**Q.** And the “Good clinical response at six months, number of patients” value (recent-onset RA patients [1]; ITPA CA genotype)?
**A.** Its value is 7.

**Q.** What about the “Good clinical response at six months, percentage of patients” value (recent-onset RA patients [1]; ITPA CA genotype) of the same compound?
**A.** Its value is “(23%)”.

**Q.** And the “Good clinical response, Methotrexate 15 mg weekly, number of responders/patients” value (recent-onset RA patients [1]; [4])?
**A.** The value was 38/47.

**Q.** And the “Good clinical response, Methotrexate 15 mg weekly, percentage” value (recent-onset RA patients [1]; [4])?
**A.** Its value is “(81%)”.

**Q.** What about the “Good clinical response, Methotrexate 25 mg weekly, number of responders/patients” value (recent-onset RA patients [1]; ITPA CC genotype, six months) of the same compound?
**A.** Its value is 39/107.

**Q.** And the “Good clinical response, Methotrexate 25 mg weekly, percentage” value (recent-onset RA patients [1]; ITPA CC genotype, six months)?
**A.** Its value is “(36%)”.

**Q.** And the “Good clinical response at six months, number of patients” value (recent-onset RA patients [1]; ITPA CC genotype)?
**A.** Its value is 79.

**Q.** And the “Good clinical response at six months, percentage of patients” value (recent-onset RA patients [1]; ITPA CC genotype)?
**A.** Its value is “(45%)”.

**Q.** And the “good clinical response percentage at 6 months” value (recent-onset RA patients [1]; ITPA CC genotyped)?
**A.** Its value is 50%.

**Q.** And the “percentage responders (DAS≦2.4) at six months” value (recent-onset RA patients [1]; overall population)?
**A.** Its value is 47%.

**Q.** And the “response rate at six months” value (recent-onset RA patients [1]; patients carrying all the favourable genotypes (n=16))?
**A.** The value was 88%.

**Q.** What about the “odds ratio for achieving good clinical response” value (recent-onset RA patients [1]; patients carrying all the favourable genotypes (n=16), logistic regression) of the same compound?
**A.** The value was 27.8.

**Q.** And the “response rate at six months” value (recent-onset RA patients [1]; patients carrying all three unfavourable genotypes (n=10))?
**A.** Its value is 10%.

**Q.** What about the “Adverse drug events at six months, number of patients with event/patients” value (“Adverse drug events … with event/patients” below) (recent-onset RA patients [2]; AMPD1 CC genotype) of the same compound?
**A.** The value was 42/146.

**Q.** And the “Adverse drug events at six months, percentage of patients” value (recent-onset RA patients [2]; AMPD1 CC genotype)?
**A.** The value was “(29%)”.

**Q.** And the “Adverse drug events … with event/patients” value (recent-onset RA patients [2]; AMPD1 CT genotype)?
**A.** The value was 16/50.

**Q.** What about the “Adverse drug events at six months, percentage of patients” value (recent-onset RA patients [2]; AMPD1 CT genotype) of the same compound?
**A.** The value was “(32%)”.

**Q.** And the “Adverse drug events … with event/patients” value (recent-onset RA patients [2]; AMPD1 TT genotype)?
**A.** The value was 1/3.

**Q.** What about the “Adverse drug events at six months, percentage of patients” value (recent-onset RA patients [2]; AMPD1 TT genotype) of the same compound?
**A.** Its value is “(33%)”.

**Q.** And the “Adverse drug events … with event/patients” value (recent-onset RA patients [2]; ATIC CC genotype)?
**A.** The value was 21/94.

**Q.** And the “Adverse drug events at six months, percentage of patients” value (recent-onset RA patients [2]; ATIC CC genotype)?
**A.** Its value is “(22%)”.

**Q.** What about the “Adverse drug events … with event/patients” value (recent-onset RA patients [2]; ATIC CG genotype) of the same compound?
**A.** The value was 33/91.

**Q.** What about the “Adverse drug events at six months, percentage of patients” value (recent-onset RA patients [2]; ATIC CG genotype) of the same compound?
**A.** Its value is “(36%)”.

**Q.** What about the “times more likely to experience any adverse drug event” value (recent-onset RA patients [2]; ATIC G-allele carriers, six months, not significant after adjustment) of the same compound?
**A.** The value was 2 times.

**Q.** What about the “Adverse drug events … with event/patients” value (recent-onset RA patients [2]; ATIC GG genotype) of the same compound?
**A.** Its value is 6/15.

**Q.** What about the “Adverse drug events at six months, percentage of patients” value (recent-onset RA patients [2]; ATIC GG genotype) of the same compound?
**A.** Its value is “(40%)”.

**Q.** And the “Adverse drug events … with event/patients” value (recent-onset RA patients [2]; ITPA CA genotype)?
**A.** Its value is 8/30.

**Q.** What about the “Adverse drug events at six months, percentage of patients” value (recent-onset RA patients [2]; ITPA CA genotype) of the same compound?
**A.** Its value is “(27%)”.

**Q.** What about the “Adverse drug events … with event/patients” value (recent-onset RA patients [2]; ITPA CC genotype) of the same compound?
**A.** Its value is 51/169.

**Q.** What about the “Adverse drug events at six months, percentage of patients” value (recent-onset RA patients [2]; ITPA CC genotype) of the same compound?
**A.** The value was “(30%)”.

**Q.** And the “Gastrointestinal (general wellbeing, nausea, vomiting, diarrhoea, constipation), frequency at 6 months, number of patients” value (recent-onset RA patients [2]; [5])?
**A.** Its value is 26.

**Q.** What about the “Gastrointestinal (general wellbeing, nausea, vomiting, diarrhoea, constipation), frequency at 6 months, percentage” value (recent-onset RA patients [2]; [5]) of the same compound?
**A.** Its value is “(13.0%)”.

**Q.** What about the “Hepatic elevated liver enzymes, frequency at 6 months, number of patients” value (recent-onset RA patients [2]; [5]) of the same compound?
**A.** The value was 16.

**Q.** What about the “Hepatic elevated liver enzymes, frequency at 6 months, percentage” value (recent-onset RA patients [2]; [5]) of the same compound?
**A.** Its value is “(8%)”.

**Q.** What about the “Overall adverse drug events, total population, frequency at 6 months, number of patients” value (recent-onset RA patients [2]; [5]) of the same compound?
**A.** Its value is 60.

**Q.** And the “Overall adverse drug events, total population, frequency at 6 months, percentage” value (recent-onset RA patients [2]; [5])?
**A.** Its value is “(30%)”.

**Q.** And the “Pneumonitis, frequency at 6 months, number of patients” value (recent-onset RA patients [2]; [5])?
**A.** Its value is 0.

**Q.** And the “Pneumonitis, frequency at 6 months, percentage” value (recent-onset RA patients [2]; [5])?
**A.** Its value is “(0%)”.

**Q.** What about the “Skin and mucosa disorders, frequency at 6 months, number of patients” value (recent-onset RA patients [2]; [5]) of the same compound?
**A.** Its value is 17.

**Q.** And the “Skin and mucosa disorders, frequency at 6 months, percentage” value (recent-onset RA patients [2]; [5])?
**A.** The value was “(8.5%)”.

**Q.** What about the “study population that experienced at least one adverse drug event during six months of treatment” value (recent-onset RA patients [2]; n=60 of 200) of the same compound?
**A.** The value was “Thirty”.

**Q.** What about the “odds ratio for adverse drug events” value (recent-onset RA patients [2]; non-responders carrying the ATIC G-allele compared to all ATIC G-allele carriers, 95% CI 1.1,7.5) of the same compound?
**A.** The value was 2.8.

**Q.** What about the “odds ratio for adverse drug events” value (recent-onset RA patients [2]; patients with good clinical response at six months compared to non-responders, 95% CI 0.22, 0.91) of the same compound?
**A.** The value was 0.45.

**Q.** And the “patients showing good clinical response” value [3]?
**A.** The value was “about 40%”.

— patent US7713696B2, “Genetic markers for prognosis of antifolate treatment efficacy” (Academisch Zeikenhuis Leiden H.O.D.N. Lumc, priority 2006, dated 2010)
